Results on 8 compounds are retold here after patent publication US11266645B2, “Methods for treating lymphoma” (Alexion Pharmaceuticals, Inc., priority 2018, dated 2022).

For series [1], the system named is patients with relapsed or refractory PTCL. To be noted: cited from earlier work; for ORR / CR / DOR: relapsed/refractory PTCL; for ORR: brentuximab only anaplastic large cell lymphoma.
Series [2] concerns Primary CLL cells. As to the kind of experiment: Primary CLL cells with IL-4/CD40L, immunoblotting and annexin V/PI viability. To be noted: for IL-4/CD40L induced Mcl-1 and Bcl-XL expression: 1 μM. Type of series: cell-based, human. The procedure:
Combination studies were performed with 10 or 100 nM venetoclax or 300 and 1000 nM S63846. Cell viability was assessed by annexin V/PI using flow cytometry and changes in protein expression by immunoblotting.
(Immunoblotting shows a protein as a band on a membrane.)

Like-named read-outs stand apart in the source and are kept apart here.

Brentuximab: in series [1] (Table 1), the “Grade 3/4 AEs: Neutropenia” value is recorded as “Neutropenia: 21%”, the “Grade 3/4 AEs: Peripheral sensory neuropathy” value was “Peripheral sensory neuropathy: 10%” and the “Grade 3/4 AEs: Thrombocytopenia” value is “Thrombocytopenia: 10%”. For the same compound, in series [1] (r/r PTCL, Table 2), the “Toxicities ≥ Grade 3: Anemia” value is 2%, the “Toxicities ≥ Grade 3: Asthenia/Fatigue” value is 4%, the “Toxicities ≥ Grade 3: Diarrhea/Colitis” value was 3% and the “Toxicities ≥ Grade 3: Neutropenia” value was 21%. In addition, in series [1] (r/r PTCL, Table 2), the “Toxicities ≥ Grade 3: Pyrexia” value is 2% and the “Toxicities ≥ Grade 3: Thrombocytopenia” value is given as 10%. In series [1], the ORR result is recorded as “ORR: 86%”, the CR entry was “(57% CR)” and the DOR result was “DOR: 12.6 months”.

Consider `C/C=C1\NC(=O)[C@H]2CSSCC/C=C/[C@H](CC(=O)N[C@H](C(C)C)C(=O)N2)OC(=O)[C@H](C(C)C)NC1=O` [Romidepsin], for which, in series [1] (Table 1), the “Grade 3/4 AEs: Fatigue” value was “Fatigue: 13%”, the “Grade 3/4 AEs: Nausea” value is given as “Nausea: 4%” and the “Grade 3/4 AEs: Thrombocytopenia” value is “Thrombocytopenia: 21%”. In series [1] (r/r PTCL, Table 2), the “Toxicities ≥ Grade 3: Anemia” value is on record as 11-28%, the “Toxicities ≥ Grade 3: Asthenia/Fatigue” value is listed as 8-19%, the “Toxicities ≥ Grade 3: Infection” value was 19% and the “Toxicities ≥ Grade 3: Leukopenia” value was 6-45%. Moreover, in series [1] (r/r PTCL, Table 2), the “Toxicities ≥ Grade 3: Neutropenia” value is 20-47%, the “Toxicities ≥ Grade 3: Pyrexia” value was 6-17%, the “Toxicities ≥ Grade 3: Sepsis” value is given as 5% and the “Toxicities ≥ Grade 3: Thrombocytopenia” value is 24-36%.

In the case of `CC[C@H](Nc1ncnc2[nH]cnc12)c1nc2cccc(F)c2c(=O)n1-c1ccccc1` [idelalisib, reference compound], the “IL-4/CD40L induced Mcl-1 and Bcl-XL expression” value in series [2] was “significantly reduced”.

As to `O=C(/C=C/c1cccc(S(=O)(=O)Nc2ccccc2)c1)NO` [Belinostat], in series [1] (Table 1), the “Grade 3/4 AEs: Anemia” value is on record as “Anemia: 11%”, the “Grade 3/4 AEs: Fatigue” value is recorded as “Fatigue: 5%” and the “Grade 3/4 AEs: Thrombocytopenia” value is “Thrombocytopenia: 7%”. In series [1] (r/r PTCL, Table 2), the “Toxicities ≥ Grade 3: Anemia” value was 11%, the “Toxicities ≥ Grade 3: Asthenia/Fatigue” value is recorded as 5%, the “Toxicities ≥ Grade 3: Infection” value is reported as 8.5%^ and the “Toxicities ≥ Grade 3: Pyrexia” value was 2%. Also, in series [1] (r/r PTCL, Table 2), the “Toxicities ≥ Grade 3: Thrombocytopenia” value is given as 7%. Besides, in series [1], the ORR result is listed as “ORR: 26%”, the CR result was “(11% CR)” and the DOR result is recorded as “DOR: 8.4 months”. In addition, in series [1] (listed as belinostat), the ORR entry was “approximately 25%”.

As for `NC(=O)c1cnc(N[C@@H]2CCCC[C@@H]2N)nc1Nc1cccc(-n2nccn2)c1` [PRT062607, reference compound], the “IL-4/CD40L induced Mcl-1 and Bcl-XL expression” value in series [2] was “significantly reduced”.

With `c1cn2cc(-c3ccc4cn[nH]c4c3)nc(Nc3ccc(N4CCOCC4)cc3)c2n1` [entospletinib, reference compound], in series [2], the “IL-4/CD40L induced Mcl-1 and Bcl-XL expression” value is given as “significantly reduced”.

For the compound `C#CCC(Cc1cnc2nc(N)nc(N)c2n1)c1ccc(C(=O)N[C@@H](CCC(=O)O)C(=O)O)cc1` (some centres unmarked) [Pralatrexate], in series [1] (Table 1), the “Grade 3/4 AEs: Anemia” value is “Anemia: 17%”, the “Grade 3/4 AEs: Fatigue” value is on record as “Fatigue: 7%”, the “Grade 3/4 AEs: Mucositis” value is given as “Mucositis: 21%” and the “Grade 3/4 AEs: Neutropenia” value is recorded as “Neutropenia: 20%”. For the same compound, in series [1] (Table 1), the “Grade 3/4 AEs: Thrombocytopenia” value was “Thrombocytopenia: 33%”. Moreover, in series [1] (r/r PTCL, Table 2), the “Toxicities ≥ Grade 3: Anemia” value was 17%, the “Toxicities ≥ Grade 3: Asthenia/Fatigue” value is 8%, the “Toxicities ≥ Grade 3: Leukopenia” value is given as 7% and the “Toxicities ≥ Grade 3: Mucositis” value is 23%. In addition, in series [1] (r/r PTCL, Table 2), the “Toxicities ≥ Grade 3: Neutropenia” value was 20%, the “Toxicities ≥ Grade 3: Pyrexia” value is recorded as 2%, the “Toxicities ≥ Grade 3: Sepsis” value is given as 5% and the “Toxicities ≥ Grade 3: Thrombocytopenia” value was 33%. Besides, in series [1], the ORR entry is on record as “ORR: 27%”, the CR result is given as “(6% CR)” and the DOR result is listed as “DOR: 9.4 months”. The ORR entry in series [1] (listed as pralatrexate) is “approximately 25%”.

Take `Cc1c(-c2c(-c3ccc(F)o3)sc3ncnc(O[C@H](Cc4ccccc4OCc4ccnn4CC(F)(F)F)C(=O)O)c23)ccc(OCCN2CCN(C)CC2)c1Cl` [S63845, reference compound]: the “synergy with BCR kinase inhibitors including cerdulatinib, CLL cell death” value in series [2] (CLL cells) is reported as “synergized”.
